Laboratory results as given in ChEMBL document CHEMBL1909046, “DrugMatrix in vitro pharmacology data”.

Columns and labels:
[1] = biological target: T1, 5-hydroxytryptamine receptor 2C (Homo sapiens, UniProt P28335); test: DRUGMATRIX: Serotonin (5-Hydroxytryptamine) 5-HT2C radioligand binding (ligand: [3H] Mesulergine); type: cell membranes, CHO-K1, Membrane; conditions: Not Active = under 50% inhibition at 10 µM
T1 sequence (P28335 whole entry): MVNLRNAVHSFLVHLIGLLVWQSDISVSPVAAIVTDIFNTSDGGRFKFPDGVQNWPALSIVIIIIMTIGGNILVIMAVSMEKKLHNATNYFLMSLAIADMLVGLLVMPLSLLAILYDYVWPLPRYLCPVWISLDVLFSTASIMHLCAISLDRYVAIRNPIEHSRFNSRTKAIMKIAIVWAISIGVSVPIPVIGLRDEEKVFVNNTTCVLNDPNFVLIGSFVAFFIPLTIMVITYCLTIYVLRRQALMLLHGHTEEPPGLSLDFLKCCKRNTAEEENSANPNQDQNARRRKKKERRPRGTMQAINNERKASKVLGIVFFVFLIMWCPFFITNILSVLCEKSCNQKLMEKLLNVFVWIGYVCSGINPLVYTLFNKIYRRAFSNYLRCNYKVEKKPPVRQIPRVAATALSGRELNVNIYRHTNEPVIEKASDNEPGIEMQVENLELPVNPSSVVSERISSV

[2] = biological target: T2, Androgen receptor (Rattus norvegicus, UniProt P15207); further: in other assays of this panel Not Active means under 50% inhibition at 10 µM
T2 sequence (P15207 whole entry): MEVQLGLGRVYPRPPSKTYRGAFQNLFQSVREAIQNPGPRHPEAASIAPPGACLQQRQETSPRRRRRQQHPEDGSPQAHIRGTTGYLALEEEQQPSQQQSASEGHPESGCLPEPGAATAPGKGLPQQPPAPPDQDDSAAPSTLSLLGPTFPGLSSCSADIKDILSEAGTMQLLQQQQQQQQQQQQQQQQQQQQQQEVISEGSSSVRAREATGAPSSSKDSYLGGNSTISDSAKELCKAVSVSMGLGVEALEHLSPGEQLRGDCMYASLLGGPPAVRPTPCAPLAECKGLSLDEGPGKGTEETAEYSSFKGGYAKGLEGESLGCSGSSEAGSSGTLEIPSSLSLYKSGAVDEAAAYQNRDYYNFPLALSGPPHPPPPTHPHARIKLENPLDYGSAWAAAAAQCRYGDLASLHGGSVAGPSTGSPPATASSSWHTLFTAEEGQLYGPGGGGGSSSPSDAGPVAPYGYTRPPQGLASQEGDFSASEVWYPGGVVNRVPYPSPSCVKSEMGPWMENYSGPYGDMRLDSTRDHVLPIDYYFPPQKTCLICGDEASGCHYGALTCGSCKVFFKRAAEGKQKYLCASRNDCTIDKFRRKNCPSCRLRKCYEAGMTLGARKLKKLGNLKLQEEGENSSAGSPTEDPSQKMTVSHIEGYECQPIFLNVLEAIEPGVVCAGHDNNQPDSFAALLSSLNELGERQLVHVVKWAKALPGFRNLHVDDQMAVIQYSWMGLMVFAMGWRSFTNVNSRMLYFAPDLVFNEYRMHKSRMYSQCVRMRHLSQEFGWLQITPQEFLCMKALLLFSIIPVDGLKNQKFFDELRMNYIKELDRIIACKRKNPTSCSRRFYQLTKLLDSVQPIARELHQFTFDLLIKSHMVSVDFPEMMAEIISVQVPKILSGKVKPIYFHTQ

[3] = biological target: Cytochrome P450 2D6 (Homo sapiens, UniProt P10635); further: in other assays of this panel Not Active means under 50% inhibition at 10 µM
Cytochrome P450 2D6, sequence (P10635 whole entry): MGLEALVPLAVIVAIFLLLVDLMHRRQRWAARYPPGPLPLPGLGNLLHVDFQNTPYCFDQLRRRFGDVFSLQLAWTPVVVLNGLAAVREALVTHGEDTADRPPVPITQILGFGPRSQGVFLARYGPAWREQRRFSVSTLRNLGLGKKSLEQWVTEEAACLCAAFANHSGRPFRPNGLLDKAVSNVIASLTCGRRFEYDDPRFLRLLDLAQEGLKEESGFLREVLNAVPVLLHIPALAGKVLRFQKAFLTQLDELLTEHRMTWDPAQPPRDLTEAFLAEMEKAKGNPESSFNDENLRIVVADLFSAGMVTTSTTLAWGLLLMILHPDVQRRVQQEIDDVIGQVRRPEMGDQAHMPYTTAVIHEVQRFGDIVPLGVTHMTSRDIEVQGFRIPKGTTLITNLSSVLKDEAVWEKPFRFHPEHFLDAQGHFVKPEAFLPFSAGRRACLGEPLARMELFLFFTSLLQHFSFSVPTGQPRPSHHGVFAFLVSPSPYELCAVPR

[4] = biological target: T3, Cytochrome P450 1A2 (Homo sapiens, UniProt P05177); further: in other assays of this panel Not Active means under 50% inhibition at 10 µM
T3 sequence (P05177 whole entry): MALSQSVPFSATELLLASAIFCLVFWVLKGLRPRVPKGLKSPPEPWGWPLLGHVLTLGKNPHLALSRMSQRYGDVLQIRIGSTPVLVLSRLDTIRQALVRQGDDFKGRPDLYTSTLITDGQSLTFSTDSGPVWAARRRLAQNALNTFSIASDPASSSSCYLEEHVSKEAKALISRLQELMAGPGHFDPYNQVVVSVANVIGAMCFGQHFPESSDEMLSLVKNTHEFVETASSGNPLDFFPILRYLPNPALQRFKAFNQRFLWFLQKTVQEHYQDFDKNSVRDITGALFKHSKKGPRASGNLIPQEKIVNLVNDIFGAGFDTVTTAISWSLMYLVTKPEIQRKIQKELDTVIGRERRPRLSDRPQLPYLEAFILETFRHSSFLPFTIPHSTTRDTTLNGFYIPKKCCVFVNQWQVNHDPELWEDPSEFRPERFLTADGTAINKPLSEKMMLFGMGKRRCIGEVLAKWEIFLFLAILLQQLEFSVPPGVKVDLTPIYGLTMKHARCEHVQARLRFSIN

[5] = biological target: Cytochrome P450 2C19 (Homo sapiens, UniProt P33261); further: in other assays of this panel Not Active means under 50% inhibition at 10 µM
Cytochrome P450 2C19, sequence (P33261 whole entry): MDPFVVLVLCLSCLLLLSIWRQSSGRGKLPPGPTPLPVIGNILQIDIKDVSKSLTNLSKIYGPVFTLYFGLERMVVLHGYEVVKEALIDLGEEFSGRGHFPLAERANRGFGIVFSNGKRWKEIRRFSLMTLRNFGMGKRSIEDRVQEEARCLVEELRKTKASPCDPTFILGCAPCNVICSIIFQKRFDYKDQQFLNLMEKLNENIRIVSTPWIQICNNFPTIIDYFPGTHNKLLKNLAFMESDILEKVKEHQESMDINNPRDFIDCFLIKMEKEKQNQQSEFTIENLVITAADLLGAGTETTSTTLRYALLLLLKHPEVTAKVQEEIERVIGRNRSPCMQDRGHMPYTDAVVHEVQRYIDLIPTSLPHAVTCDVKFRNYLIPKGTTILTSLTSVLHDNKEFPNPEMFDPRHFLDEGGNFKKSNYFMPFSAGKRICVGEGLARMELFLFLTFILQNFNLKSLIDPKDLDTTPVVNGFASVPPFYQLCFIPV

[6] = biological target: Cytochrome P450 2C9 (Homo sapiens, UniProt P11712); further: in other assays of this panel Not Active means under 50% inhibition at 10 µM
Cytochrome P450 2C9, sequence (P11712 whole entry): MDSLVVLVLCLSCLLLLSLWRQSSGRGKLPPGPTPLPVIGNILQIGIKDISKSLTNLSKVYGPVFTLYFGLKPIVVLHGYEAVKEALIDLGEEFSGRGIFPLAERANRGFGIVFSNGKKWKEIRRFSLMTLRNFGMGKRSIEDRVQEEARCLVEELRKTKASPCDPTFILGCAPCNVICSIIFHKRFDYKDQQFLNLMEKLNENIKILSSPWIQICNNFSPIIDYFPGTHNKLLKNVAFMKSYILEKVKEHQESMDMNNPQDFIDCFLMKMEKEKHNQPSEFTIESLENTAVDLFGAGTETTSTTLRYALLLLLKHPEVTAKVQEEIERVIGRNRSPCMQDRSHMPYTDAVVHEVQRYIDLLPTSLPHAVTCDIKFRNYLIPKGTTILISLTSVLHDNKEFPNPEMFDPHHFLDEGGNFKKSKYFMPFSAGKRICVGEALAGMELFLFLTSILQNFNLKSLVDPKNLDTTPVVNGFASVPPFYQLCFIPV

| Compound | IC50 ([1]; cho-k1) | also measured |
| --- | --- | --- |
| Nc1nc(N)c2nc(-c3ccccc3)c(N)nc2n1 | Not Active | IC50 [2]: Not Active; IC50 [3]: 10000 nM |
| CCN(CC)C(=S)SSC(=S)N(CC)CC | Not Active | IC50 [4]: 4000 nM; IC50 [2]: Not Active |
| CN(C)CCC=C1c2ccccc2COc2ccccc21 [DOXEPIN] |  | IC50 [2]: Not Active |
| O=C(c1ccccc1)c1ccc2n1CCC2C(=O)O (centres undefined) [KETOROLAC] | Not Active |  |
| CCOC(=O)C1=C(C)NC(C)=C(C(=O)OCC)C1c1ccccc1/C=C/C(=O)OC(C)(C)C [LACIDIPINE] | Not Active | IC50 [5]: 2000 nM; IC50 [6]: 2000 nM |
| CC(O)C(=O)O (centres undefined) [LACTIC ACID] | Not Active |  |
| CC(C)(C)NC[C@H](O)COc1cccc2c1CCCC2=O [LEVOBUNOLOL] | Not Active |  |
| CO[C@@H]1[C@@H](OC)[C@H](C)[C@@](O)(CC(=O)O)O[C@H]1[C@H](C)[C@H]1O[C@@]2(CC[C@@](C)([C@H]3CC[C@@](C)([C@@H]4O[C@@H]([C@H]5O[C@](C)(O)[C@H](C)C[C@@H]5C)C[C@@H]4O[C@@H]4C[C@H](OC)[C@@H](OC)[C@H](C)O4)O3)O2)C[C@H](O)[C@H]1C.N [MADURAMICIN] | Not Active |  |
| OC[C@@H](O)[C@@H](O)[C@H](O)[C@H](O)CO [MANNITOL] | Not Active |  |
| COC(=O)Nc1nc2ccc(C(=O)c3ccccc3)cc2[nH]1 [MEBENDAZOLE] | Not Active | IC50 [2]: Not Active |
| Cc1ccc(Cl)c(Nc2ccccc2C(=O)O)c1Cl [MECLOFENAMIC ACID] | Not Active |  |
| Cc1cnc(NC(=O)C2=C(O)c3ccccc3S(=O)(=O)N2C)s1 [MELOXICAM] | Not Active |  |
| C[N+]1(C)[C@@H]2C[C@@H](OC(=O)[C@H](CO)c3ccccc3)C[C@H]1[C@@H]1O[C@@H]12.[Br-] [METHSCOPOLAMINE BROMIDE] | Not Active |  |
| CCN(CC)CCNC(=O)c1cc(Cl)c(N)cc1OC [METOCLOPRAMIDE] |  | IC50 ([1]; read-out: IC50): 2380 nM; Ki ([1]; read-out: Ki): 1250 nM; IC50 [3]: 800 nM |
| CC[C@H](C)C(=O)O[C@H]1CCC=C2C=C[C@H](C)[C@H](CC[C@@H]3C[C@@H](O)CC(=O)O3)[C@H]21 [MEVASTATIN] | Not Active | IC50 [2]: Not Active |
| CC#C[C@]1(O)CC[C@H]2[C@@H]3CCC4=CC(=O)CCC4=C3[C@@H](c3ccc(N(C)C)cc3)C[C@@]21C [MIFEPRISTONE] | Not Active |  |
| Cc1[nH]c(=O)c(C#N)cc1-c1ccncc1 [MILRINONE] | Not Active |  |
| CO[C@@]12[C@H](COC(N)=O)C3=C(C(=O)C(C)=C(N)C3=O)N1C[C@@H]1N[C@@H]12 [MITOMYCIN] | Not Active |  |
| CCOc1cc(N)c(Cl)cc1C(=O)NCC1CN(Cc2ccc(F)cc2)CCO1 (centres undefined) [MOSAPRIDE] |  | IC50 [4]: 400 nM; IC50 [5]: 1000 nM; IC50 [6]: 1000 nM; IC50 ([1]; read-out: IC50): 397 nM; Ki ([1]; read-out: Ki): 208 nM |
| CCN(CC)N=O [N-NITROSODIETHYLAMINE] | Not Active |  |
| O=C1CC[C@@]2(O)[C@H]3Cc4ccc(O)c5c4[C@@]2(CCN3CC2CC2)[C@H]1O5 [NALTREXONE] | Not Active |  |
| Oc1ccc(/C=C/c2cc(O)cc(O)c2)cc1 [RESVERATROL] | Not Active | IC50 [2]: Not Active |

| Compound | IC50 ([1]; cho-k1) | also measured |
| --- | --- | --- |
| CC(N)C12CC3CC(CC(C3)C1)C2 (centres undefined) [RIMANTADINE] | Not Active |  |
| CS(=O)(=O)c1ccc(C2=C(c3ccccc3)C(=O)OC2)cc1 [ROFECOXIB] | Not Active |  |
| C=CCc1ccc2c(c1)OCO2 [SAFROLE] | Not Active | IC50 [4]: 10000 nM |
| CCC(C)(C)C(=O)O[C@H]1C[C@@H](C)C=C2C=C[C@H](C)[C@H](CC[C@@H]3C[C@@H](O)CC(=O)O3)[C@H]21 [SIMVASTATIN] | Not Active |  |
| O=[As][O-].[Na+] [SODIUM ARSENITE] | Not Active | IC50 [2]: Not Active |
| C1CCN2C[C@@H]3C[C@@H](CN4CCCC[C@@H]34)[C@H]2C1 [SPARTEINE] | Not Active |  |
| C[C@]12CCC(=O)C[C@@H]1CC[C@@H]1[C@@H]2CC[C@]2(C)[C@@H](O)CC[C@@H]12 [STANOLONE] | Not Active |  |
| Cc1cn([C@H]2C=C[C@@H](CO)O2)c(=O)[nH]c1=O [STAVUDINE] | Not Active |  |
| CC1(C)[C@H](C(=O)O)N2C(=O)C[C@H]2S1(=O)=O [SULBACTAM] | Not Active |  |
| Cc1ccnc(NS(=O)(=O)c2ccc(N)cc2)n1 [SULFAMERAZINE] | Not Active |  |
| Cc1nnc(NS(=O)(=O)c2ccc(N)cc2)s1 [SULFAMETHIZOLE] | Not Active | IC50 [2]: Not Active |
| O=C(O)c1cc(/N=N/c2ccc(S(=O)(=O)Nc3ccccn3)cc2)ccc1O [SULFASALAZINE] | Not Active |  |
| CCN1CCCC1CNC(=O)c1cc(S(N)(=O)=O)ccc1OC (centres undefined) [SULPIRIDE] | Not Active | IC50 [2]: Not Active |
| O=C(OC[C@H]1O[C@@H](OC(=O)c2cc(O)c(O)c(OC(=O)c3cc(O)c(O)c(O)c3)c2)[C@H](OC(=O)c2cc(O)c(O)c(OC(=O)c3cc(O)c(O)c(O)c3)c2)[C@@H](OC(=O)c2cc(O)c(O)c(OC(=O)c3cc(O)c(O)c(O)c3)c2)[C@@H]1OC(=O)c1cc(O)c(O)c(OC(=O)c2cc(O)c(O)c(O)c2)c1)c1cc(O)c(O)c(OC(=O)c2cc(O)c(O)c(O)c2)c1 [TANNIC ACID] | Not Active | IC50 [4]: 919 nM; IC50 [6]: 4610 nM |
| C#C[C@]1(O)CC[C@H]2[C@@H]3[C@H](C)CC4=C(CCC(=O)C4)[C@H]3CC[C@@]21C [TIBOLONE] | Not Active | IC50 [5]: 3000 nM |
| Cc1cccc(C)c1NC(=O)C(C)N (centres undefined) [TOCAINIDE] | Not Active |  |
| Cc1ccc(S(=O)(=O)NC(=O)NN2CCCCCC2)cc1 [TOLAZAMIDE] | Not Active |  |
| CC[C@@]1(O)C(=O)OCc2c1cc1n(c2=O)Cc2cc3c(CN(C)C)c(O)ccc3nc2-1 [TOPOTECAN] | Not Active |  |
| CC1=C(/C=C/C(C)=C/C=C/C(C)=C/C(=O)O)C(C)(C)CCC1 [TRETINOIN] | Not Active |  |
| CC(Cl)(Cl)Cl [TRICHLOROETHANE] | Not Active |  |
| CN1C(=O)OC(C)(C)C1=O [TRIMETHADIONE] | Not Active |  |
| LEAD(IV) ACETATE | Not Active | Ki ([1]; cho-k1): Not Active; IC50 [2]: Not Active; Ki [2]: Not Active |
